Molecular target: T1, Growth factor receptor-bound protein 10 (Homo sapiens, UniProt Q13322)
T1 sequence (Q13322 whole entry): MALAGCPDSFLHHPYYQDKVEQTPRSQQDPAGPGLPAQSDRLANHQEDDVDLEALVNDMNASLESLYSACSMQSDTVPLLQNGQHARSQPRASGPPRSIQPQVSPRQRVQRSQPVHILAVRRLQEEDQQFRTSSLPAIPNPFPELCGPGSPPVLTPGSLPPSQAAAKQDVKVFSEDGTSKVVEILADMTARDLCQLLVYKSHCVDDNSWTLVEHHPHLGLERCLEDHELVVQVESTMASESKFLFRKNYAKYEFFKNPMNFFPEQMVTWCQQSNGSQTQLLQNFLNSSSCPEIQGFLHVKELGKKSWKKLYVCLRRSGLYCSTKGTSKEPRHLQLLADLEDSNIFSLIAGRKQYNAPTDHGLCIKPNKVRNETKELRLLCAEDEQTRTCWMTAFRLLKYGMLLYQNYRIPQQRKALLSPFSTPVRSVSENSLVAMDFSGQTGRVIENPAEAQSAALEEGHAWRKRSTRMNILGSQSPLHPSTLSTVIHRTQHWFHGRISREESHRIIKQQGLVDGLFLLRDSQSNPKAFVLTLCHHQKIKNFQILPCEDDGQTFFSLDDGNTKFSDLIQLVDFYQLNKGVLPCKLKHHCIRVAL
Test: Binding affinity to GST-tagged Grb10-SH2 domain (471 to 594 amino acid residues) (unknown origin) expressed in Escherichia coli BL21 (DE3) using 20 mM Tris/1 mM NaPO4 buffer by SPR analysis; call rule not given here

Kd: Not Active
SMILES: C[C@@H](O)[C@@H]1NC(=O)[C@H](CC(N)=O)NC(=O)[C@H](CC(=O)O)NC(=O)[C@H](Cc2ccc(O)cc2)NC(=O)CNC(=O)[C@H](CCC(=O)O)NC(=O)[C@H](Cc2ccccc2)NC(=O)[C@H](Cc2c[nH]c3ccccc23)NC(=O)CSC[C@@H](C(N)=O)NC(=O)[C@@H]2CCCN2C(=O)[C@H](Cc2ccccc2)NC1=O
